These results are taken from patent US8148339B2, “Method of reducing cardiac levels of doxorubicin when given as orotate salt” (Savvipharm Inc, priority 2006, dated 2012).

The subject of data set [1] is CAKI-1 human renal tumor xenografts. Conditions: i.v., equivalent dosages.
Protocol: The 0.8 mg/mL solution was diluted with saline to 0.53 and 0.35 mg/mL.
The 0.975 mg/mL solution was further diluted with saline to 0.65 and 0.43 mg/mL.
Both compounds and vehicle were administered to mice by animal's body weight on each day of treatment with the injection volume being 0.1 mL/10 g of body weight.
Tumors were measured and volume determined using formula L×W^2/2=mm^3; and weight calculated assuming 1 mm^3=1 mg. The study was terminated 95 days after tumor implantation.
For data set [2] the following is noted: cumulative dose; cited from earlier work.
The nature of data set [3]: in vivo. Conditions: male, athymic NCr-nu/nu, mouse, iv, 8 mg/kg.
For data set [4] the following is noted: in vivo; cited from earlier work.

Counter-ions that a name gives are not always drawn.

As to `COc1cccc2c1C(=O)c1c(O)c3c(c(O)c1C2=O)C[C@@](O)(C(=O)CO)C[C@@H]3O[C@H]1C[C@H](N)[C@H](O)[C@H](C)O1.O=C(O)c1cc(=O)[nH]c(=O)[nH]1` [DOX orotate, doxorubicin orotate], the “difference in tumor growth, DOX orotate compared with DOX” value in data set [1] is recorded as “no significant difference”.

In general, AUC refers to the area under the concentration-time curve, a measure of exposure. Regarding `COc1cccc2c1C(=O)c1c(O)c3c(c(O)c1C2=O)C[C@@](O)(C(=O)CO)C[C@@H]3O[C@H]1C[C@H](N)[C@H](O)[C@H](C)O1` [DOX, (85, 105)-10-[(3-amino-2,3,6-trideoxy-(c-L-lyxo-hexopyranosyl)oxy]-8-glycolyl 1-7,8,9,10-tetrahydro-6,8,11-trihydroxy-1-methoxy-5,12-naphthacenedione hydrochloride], the “total dosage at which irreversible myocardial toxicity leading to congestive heart failure may be encountered” value in data set [2] was roughly 550 mg/m^2. This molecule showed a concentration at 1 day after the last injection (day 26) in data set [3] of 7400 ng/g. In addition, in data set [4], the AUC was 9900 µg·h/mL.
